# Data: patent publication US9012489B2, “Phenyl-3-aza-bicyclo[3.1.0]hex-3-yl-methanones and the use thereof as medicament” (Boehringer Ingelheim International GmbH, priority 2011, dated 2015)
# Molecular target: T1, GlyT1 transporter (Homo sapiens, UniProt P48067)
# T1 construct: endogenously expressing the GlyT1 transporter; host or cells: SK-N-MC human neuroblastoma cells
# T1 sequence (P48067 1-706): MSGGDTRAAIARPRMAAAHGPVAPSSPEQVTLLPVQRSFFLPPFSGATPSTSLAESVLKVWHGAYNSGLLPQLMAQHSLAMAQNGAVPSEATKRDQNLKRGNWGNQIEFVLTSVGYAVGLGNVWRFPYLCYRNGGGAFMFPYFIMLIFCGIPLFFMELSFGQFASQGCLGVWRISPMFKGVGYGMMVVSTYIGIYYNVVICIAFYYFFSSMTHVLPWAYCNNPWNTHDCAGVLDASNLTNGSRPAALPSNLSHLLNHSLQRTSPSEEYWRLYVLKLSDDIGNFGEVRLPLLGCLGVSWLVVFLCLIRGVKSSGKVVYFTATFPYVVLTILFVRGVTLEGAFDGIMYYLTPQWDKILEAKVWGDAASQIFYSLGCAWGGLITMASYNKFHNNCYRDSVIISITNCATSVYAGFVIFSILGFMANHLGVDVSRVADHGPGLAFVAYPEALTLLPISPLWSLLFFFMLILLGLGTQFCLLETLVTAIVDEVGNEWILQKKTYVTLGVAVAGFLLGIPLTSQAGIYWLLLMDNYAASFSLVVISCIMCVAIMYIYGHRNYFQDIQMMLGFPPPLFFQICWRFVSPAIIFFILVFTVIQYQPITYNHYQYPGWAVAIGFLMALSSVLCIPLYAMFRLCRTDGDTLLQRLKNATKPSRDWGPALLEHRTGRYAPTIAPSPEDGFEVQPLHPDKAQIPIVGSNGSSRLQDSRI
# Test: GlyT1 assay: 3H-glycine uptake into SK-N-MC cells (Cytostar-T format)
# Assay type: cell-based
# Settings: glycine uptake in human SK-N-MC cells endogenously expressing GlyT1; 500 nM glycine, 1% DMSO, signal recorded over 60 min
# Summary of the method: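 Uptake slopes, measured over 60 min from the linear kinetic range, give IC50 from 8 compound concentrations, with 10 μM RG-1678 setting background. Substrate is 500 nM glycine (250 nM ³H, 250 nM unlabelled) in HBSS/5 mM alanine, 1% DMSO, after roughly 5-10 min compound preincubation. Cells: confluent SK-N-MC endogenously expressing human GlyT1.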
row,Compound,IC50 [nM]
1,"C[C@H](Oc1ccc(S(C)(=O)=O)cc1C(=O)N1CC2CC2(c2nnc(C(F)(F)F)o2)C1)C(F)(F)F (single isomer, unassigned) [Example 126, [5-Methanesulfonyl-2-(2,2,2-trifluoro-1-methyl-ethoxy)-phenyl]-[1-(5-trifluoromethyl-[1,3,4]oxadiazol-2-yl)-3-aza-bicyclo[3.1.0]hex-3-yl]-methanone]",16
2,"C[C@@H](Oc1ccc(S(C)(=O)=O)cc1C(=O)N1CC2CC2(c2nnc(C(F)(F)F)o2)C1)C(F)(F)F (mixture of isomers) [Example 122, [5-Methanesulfonyl-2-(2,2,2-trifluoro-1-methyl-ethoxy)-phenyl]-[1-(5-trifluoromethyl-[1,3,4]oxadiazol-2-yl)-3-aza-bicyclo[3.1.0]hex-3-yl]-methanone]",21
3,"C[C@H](Oc1ccc(S(C)(=O)=O)cc1C(=O)N1CC2CC2(c2noc(C(F)(F)F)n2)C1)C(F)(F)F (single isomer, unassigned) [Example 3, [5-Methanesulfonyl-2-(2,2,2-trifluoro-1-methyl-ethoxy)-phenyl]-[1-(5-trifluoromethyl-[1,2,4]oxadiazol-3-yl)-3-aza-bicyclo[3.1.0]hex-3-yl]-methanone]",1020
4,"C[C@@H](Oc1ccc(C#N)cc1C(=O)N1CC2CC2(c2noc(C(F)(F)F)n2)C1)C(F)(F)F (mixture of isomers) [Example 91, 4-(2,2,2-Trifluoro-1-methyl-ethoxy)-3-[1-(5-trifluoromethyl-[1,2,4]oxadiazol-3-yl)-3-aza-bicyclo[3.1.0]hexane-3-carbonyl]-benzonitrile]",112
5,"CC(C)COc1ccc(S(C)(=O)=O)cc1C(=O)N1CC2CC2(c2noc(C(F)(F)F)n2)C1 (racemic) [Example 95, (2-Isobutoxy-5-methxnesulfonyl-phenyl)-[1-(5-trifluoromethyl-[1,2,4]oxadiazol-3-yl)-3-aza-bicyclo[3.10]hex-3-yl]-methanone]",131
6,Cc1c(C23CC2CN(C(=O)c2cc(S(C)(=O)=O)ccc2O[C@@H](C)C(F)(F)F)C3)noc1C(F)(F)F (mixture of isomers) [Example 163],16
7,"COC1(c2nc(C34CC3CN(C(=O)c3cc(S(C)(=O)=O)ccc3O[C@H](C)C(F)(F)F)C4)no2)CC1 (single isomer, unassigned) [Example 121, [5-Methanesulfonyl-2-(2,2,2-trifluoro-1-methyl-ethoxy)-phenyl]-{1-[5-(1-methoxy-cyclopropyl)-[1,2,4]oxadiazol-3-yl]-3-aza-bicyclo[3.1.0]hex-3-yl}-methanone]",349
8,"CCS(=O)(=O)c1ccc(O[C@H](C)C(F)(F)F)c(C(=O)N2CC3CC3(c3noc(C(F)(F)F)n3)C2)c1 (single isomer, unassigned) [Example 93, [5-Ethanesulfonyl-2-(2,2,2-trifluoro-1-methyl-ethoxy)-phenyl]-[1-(5-trifluoromethyl-[1,2,4]oxadiazol-3-yl)-3-aza-bicyclo[3.1.0]hex-3-yl]-methanone]",11
9,"C[C@@H](Oc1ccc(S(C)(=O)=O)cc1C(=O)N1CC2CC2(c2noc(C3CC3)n2)C1)C(F)(F)F (single isomer, unassigned) [Example 44, [1-(5-Cyclopropyl-[1,2,4]oxadiazol-3-yl)-3-aza-bicyclo[3.1.0]hex-3-yl]-[5-methanesulfonyl-2-(2,2,2-trifluoro-1-methyl-ethoxy)-phenyl]-methanone]",397
10,"CCS(=O)(=O)c1ccc(O[C@H](C)C(F)(F)F)c(C(=O)N2CC3CC3(c3noc(C(F)(F)F)n3)C2)c1 (mixture of isomers) [Example 92, [5-Ethanesulfonyl-2-(2,2,2-trifluoro-1-methyl-ethoxy)-phenyl]-[1-(5-trifluoromethyl-[1,2,4]oxadiazol-3-yl)-3-aza-bicyclo[3.1.0]hex-3-yl]-methanone]",25
11,"C[C@H](Oc1ccc(S(C)(=O)=O)cc1C(=O)N1CC2CC2(c2cc(C(F)(F)F)on2)C1)C(F)(F)F (single isomer, unassigned) [Example 48, [5-Methanesulfonyl-2-(2,2,2-trifluoro-1-methyl-ethoxy)-phenyl]-[1-(5-trifluoromethyl-isoxazol-3-yl)-3-aza-bicyclo[3.1.0]hex-3-yl]-methanone]",886
12,"C[C@H](Oc1ccc(S(C)(=O)=O)cc1C(=O)N1CC2CC2(c2cccc(C(F)(F)F)n2)C1)C(F)(F)F (single isomer, unassigned) [Example 56, [5-Methanesulfonyl-2-(2,2,2-trifluoro-1-methyl-ethoxy)-phenyl]-[1-(6-trifluoromethyl-pyridin-2-yl)-3-aza-bicyclo[3.1.0]hex-3-yl]-methanone]",233
13,"C[C@@H](Oc1ccc(S(C)(=O)=O)cc1C(=O)N1CC2CC2(c2csc(C(F)(F)F)n2)C1)C(F)(F)F (mixture of isomers) [Example 29, [5-Methanesulfonyl-2-(2,2,2-trifluoro-1-methyl-ethoxy)-phenyl]-[1-(2-trifluoromethyl-thiazol-4-yl)-3-aza-bicyclo[3.1.0]hex-3-yl]-methanone]",11

# More lines, in order of falling IC50, values ahead:
row,IC50 [nM],Compound
1,11,"C[C@@H](Oc1ccc(S(C)(=O)=O)cc1C(=O)N1CC2CC2(c2nc(C3(C(F)(F)F)CC3)no2)C1)C(F)(F)F (mixture of isomers) [Example 156, [5-Methanesulfonyl-2-(2,2,2-trifluoro-1-methyl-ethoxy)-phenyl]-{1-[3-(1-trifluoromethyl-cyclopropyl)-[1,2,4]oxadiazol-5-yl]-3-aza-bicyclo[3.1.0]hex-3-yl}-methanone]"
2,10,"C[C@H](Oc1ccc(S(C)(=O)=O)cc1C(=O)N1CC2CC2(c2nnc(C3(C(F)(F)F)CC3)o2)C1)C(F)(F)F (mixture of isomers) [Example 151, [5-Methanesulfonyl-2-(2,2,2-trifluoro-1-methyl-ethoxy)-phenyl]-{1-[5-(1-trifluoromethyl-cyclopropyl)-[1,3,4]oxadiazol-2-yl]-3-aza-bicyclo[3.1.0]hex-3-yl}-methanone]"
3,9,"C[C@H](Oc1ccc(S(C)(=O)=O)cc1C(=O)N1CC2CC2(c2noc(C3(C(F)(F)F)CC3)n2)C1)C(F)(F)F (mixture of isomers) [Example 65, [5-Methanesulfonyl-2-(2,2,2-trifluoro-1-methyl-ethoxy)-phenyl]-{1-[5-(1-trifluoromethyl-cyclopropyl)-[1,2,4]oxadiazol-3-yl]-3-aza-bicyclo[3.1.0]hex-3-yl}-methanone]"
4,7,"C[C@@H](Oc1ccc(S(C)(=O)=O)cc1C(=O)N1CC2CC2(c2nc(C3CC3)no2)C1)C(F)(F)F (mixture of isomers) [Example 145, [1-(3-Cyclopropyl-[1,2,4]oxadiazol-5-yl)-3-aza-bicyclo[3.1.0]hex-3-yl]-[5-methanesulfonyl-2-(2,2,2-trifluoro-1-methyl-ethoxy)-phenyl]-methanone]"
5,7,"CCS(=O)(=O)c1ccc(O[C@H](C)C(F)(F)F)c(C(=O)N2CC3CC3(c3cc(C(F)(F)F)on3)C2)c1 (mixture of isomers) [Example 105, [5-Ethanesulfonyl-2-(2,2,2-trifluoro-1-methyl-ethoxy)-phenyl]-[1-(5-trifluoromethyl-isoxazol-3-yl)-3-aza-bicyclo[3.1.0]hex-3-yl]-methanone]"
6,6,"C[C@@H](Oc1ccc(S(C)(=O)=O)cc1C(=O)N1CC2CC2(c2ncc(C(F)(F)F)o2)C1)C(F)(F)F (mixture of isomers) [Example 128, [5-Methanesulfonyl-2-(2,2,2-trifluoro-1-methyl-ethoxy)-phenyl]-[1-(5-trifluoromethyl-oxazol-2-yl)-3-aza-bicyclo[3.1.0]hex-3-yl]-methanone]"
7,4,"CCS(=O)(=O)c1ccc(O[C@@H](C)C(F)(F)F)c(C(=O)N2CC3CC3(c3nccc(C(F)(F)F)n3)C2)c1 (single isomer, unassigned) [Example 74, [5-Ethanesulfonyl-2-(2,2,2-trifluoro-1-methyl-ethoxy)-phenyl]-[1-(4-trifluoromethyl-pyrimidin-2-yl)-3-aza-bicyclo[3.1.0]hex-3-yl]-methanone]"
8,3,"C[C@@H](Oc1ccc(S(C)(=O)=O)cc1C(=O)N1CC2CC2(c2noc(C3(C(F)(F)F)CC3)n2)C1)C(F)(F)F (single isomer, unassigned) [Example 69, [5-Methanesulfonyl-2-(2,2,2-trifluoro-1-methyl-ethoxy)-phenyl]-{1-[5-(1-trifluoromethyl-cyclopropyl)-[1,2,4]oxadiazol-3-yl]-3-aza-bicyclo[3.1.0]hex-3-yl}-methanone]"
9,3,"C[C@H](Oc1ccc(S(C)(=O)=O)cc1C(=O)N1CC2CC2(c2ncc(C(F)(F)F)o2)C1)C(F)(F)F (single isomer, unassigned) [Example 132, [5-Methanesulfonyl-2-(2,2,2-trifluoro-1-methyl-ethoxy)-phenyl]-[1-(5-trifluoromethyl-oxazol-2-yl)-3-aza-bicyclo[3.1.0]hex-3-yl]-methanone]"
